Experimental data from patent US11046699B2, “Pyrazolo-pyrimidin-amino-cycloalkyl compounds and their therapeutic uses” (RAPT THERAPEUTICS, INC., priority 2018, dated 2021).
Counter-ions that a name gives are not always drawn.

target: GCN2 (Homo sapiens, UniProt Q9P2K8); experiment: GCN2 enzymatic endpoint assay: phosphorylation of GFP-eIF2α measured by TR-FRET (Lanthascreen); assay type: biochemical; details: GCN2 biochemical IC50; 4 nM GCN2, 2 μM ATP, 80 nM GFP-eIF2α, 90 min RT; read-out: GCN2 activity
Sequence (Q9P2K8 whole entry): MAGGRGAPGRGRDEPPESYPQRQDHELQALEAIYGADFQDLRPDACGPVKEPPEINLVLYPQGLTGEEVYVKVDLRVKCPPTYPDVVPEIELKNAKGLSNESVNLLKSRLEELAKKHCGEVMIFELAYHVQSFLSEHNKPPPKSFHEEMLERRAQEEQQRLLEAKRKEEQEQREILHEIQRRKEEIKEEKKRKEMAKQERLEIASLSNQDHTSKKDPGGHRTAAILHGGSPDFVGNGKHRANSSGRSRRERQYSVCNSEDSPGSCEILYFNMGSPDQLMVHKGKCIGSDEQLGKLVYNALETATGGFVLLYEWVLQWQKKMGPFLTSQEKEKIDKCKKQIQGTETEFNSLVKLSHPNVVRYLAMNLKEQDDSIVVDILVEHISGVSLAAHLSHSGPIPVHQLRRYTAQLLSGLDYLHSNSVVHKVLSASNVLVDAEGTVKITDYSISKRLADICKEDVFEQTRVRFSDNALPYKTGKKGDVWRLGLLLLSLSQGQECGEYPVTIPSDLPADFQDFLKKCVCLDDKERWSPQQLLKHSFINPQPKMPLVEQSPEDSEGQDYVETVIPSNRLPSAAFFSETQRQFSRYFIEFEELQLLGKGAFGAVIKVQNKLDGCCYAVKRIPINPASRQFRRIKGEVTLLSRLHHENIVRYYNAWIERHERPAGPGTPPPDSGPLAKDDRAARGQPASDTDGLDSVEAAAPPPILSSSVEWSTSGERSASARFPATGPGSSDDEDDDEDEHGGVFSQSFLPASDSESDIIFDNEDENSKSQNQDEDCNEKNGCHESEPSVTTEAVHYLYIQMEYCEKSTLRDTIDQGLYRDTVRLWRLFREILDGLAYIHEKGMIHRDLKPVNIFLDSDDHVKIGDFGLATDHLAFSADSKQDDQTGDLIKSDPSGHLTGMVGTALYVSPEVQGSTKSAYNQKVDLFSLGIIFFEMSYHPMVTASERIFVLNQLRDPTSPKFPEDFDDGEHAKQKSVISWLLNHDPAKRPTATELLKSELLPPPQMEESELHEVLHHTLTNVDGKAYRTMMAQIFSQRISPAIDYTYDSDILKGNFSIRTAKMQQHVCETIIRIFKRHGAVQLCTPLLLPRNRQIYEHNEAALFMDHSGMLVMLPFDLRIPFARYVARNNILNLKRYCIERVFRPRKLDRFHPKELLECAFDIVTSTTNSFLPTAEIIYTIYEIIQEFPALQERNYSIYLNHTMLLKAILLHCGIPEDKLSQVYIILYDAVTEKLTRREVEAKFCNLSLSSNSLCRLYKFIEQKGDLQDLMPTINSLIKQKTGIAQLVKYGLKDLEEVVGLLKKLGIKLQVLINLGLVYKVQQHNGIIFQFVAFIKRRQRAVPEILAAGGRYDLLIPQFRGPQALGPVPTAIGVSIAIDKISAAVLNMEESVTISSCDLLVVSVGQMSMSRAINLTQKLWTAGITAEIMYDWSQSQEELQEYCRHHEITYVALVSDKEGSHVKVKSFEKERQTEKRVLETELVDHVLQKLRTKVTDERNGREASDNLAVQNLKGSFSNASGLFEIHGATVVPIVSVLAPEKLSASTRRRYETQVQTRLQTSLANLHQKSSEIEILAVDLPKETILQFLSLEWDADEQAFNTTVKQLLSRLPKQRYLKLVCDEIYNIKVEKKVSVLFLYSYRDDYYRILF
Summary of the method: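 Endpoint kinase reaction with 2 μM ATP and 80 nM GFP-labelled eIF2α substrate, run at room temperature for 90 min, then stopped with EDTA. Phospho-substrate detected by terbium-antibody TR-FRET, activity taken as the 520/495 nm emission ratio.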

IC50	Compound
< 25 nM	CNC(=O)[C@]1(C(C)C)CC[C@@H](Nc2ncc3c(Br)nn(-c4cc(F)c5ncccc5c4)c3n2)C1 [Example 37, (1R,3R)-3-((3-bromo-1-(8-fluoroquinolin-6-yl)-1H-pyrazolo[3,4-d]pyrimidin-6-yl)amino)-1-isopropyl-N-methylcyclopentane-1-carboxamide hydrochloride]
< 25 nM	CNC(=O)[C@]1(C)CC[C@@H](Nc2ncc3c(Br)nn(-c4ccc(-c5nnc(C)o5)c(C#N)c4)c3n2)C1 [Example 35, (1R,3R)-3-((3-bromo-1-(3-cyano-4-(5-methyl-1,3,4-oxadiazol-2-yl)phenyl)-1H-pyrazolo[3,4-d]pyrimidin-6-yl)amino)-N,1-dimethylcyclopentane-1-carboxamide; 2,2,2-trifluoroacetic acid]
< 25 nM	CN(C)C(=O)[C@]1(C)CC[C@@H](Nc2ncc3c(Br)nn(-c4cc(CCN)c5ncccc5c4)c3n2)C1 [Example 30, (1R,3R)-3-((1-(8-(2-aminoethyl)quinolin-6-yl)-3-bromo-1H-pyrazolo[3,4-d]pyrimidin-6-yl)amino)-N,N,1-trimethylcyclopentane-1-carboxamide; 2,2,2-trifluoroacetic acid]

same assay, conditions: tested as described in Example 77; compound and/or hydrochloride, dihydrochloride or trifluoroacetic acid salt; read-out: IC 50 Activity

IC50	Compound
25 to 200 nM	Cc1nnc(-c2ccc(-n3nc(Br)c4cnc(N[C@@H]5CCC(C)(C(=O)N6C[C@@H](C)O[C@H](C)C6)C5)nc43)cc2)o1 (stereo partly drawn) [[(3R)-3-[[3-bromo-1-[4-(5-methyl-1,3,4-oxadiazol-2-yl)phenyl]pyrazolo[3,4-d]pyrimidin-6-yl]amino]-1-methyl-cyclopentyl]-[(2R,6R)-2,6-dimethylmorpholin-4-yl]methanone]
25 to 200 nM	C[C@]1(C(=O)O)CC[C@@H](Nc2ncc3c(Br)nn(-c4cc(CCN)c5ncccc5c4)c3n2)C1 [(1S,3R)-3-[[1-[8-(2-aminoethyl)-6-quinolyl]-3-bromo-pyrazolo[3,4-d]pyrimidin-6-yl]amino]-1-methyl-cyclopentanecarboxylic acid]
25 to 200 nM	CNC(=O)[C@@]1(CO)CC[C@@H](Nc2ncc3c(Br)nn(-c4ccc(-c5nnc(C)s5)cc4)c3n2)C1 [(1S,3R)-3-[[3-bromo-1-[4-(5-methyl-1,3,4-thiadiazol-2-yl)phenyl]pyrazolo [3,4-d]pyrimidin-6-yl]amino]-1-(hydroxymethyl)-N-methyl-cyclo-pentanecarboxamide]
< 25 nM	CNC(=O)[C@]1(C)CC[C@@H](Nc2ncc3c(Br)nn(-c4cc([C@H](C)CO)c5ncccc5c4)c3n2)C1 [(1R,3R)-3-[[3-bromo-1-[8-[(1S)-2-hydroxy-1-methyl-ethyl]-6-quinolyl]pyrazolo[3,4-d]pyrimidin-6-yl]amino]-N,1-dimethyl-cyclopentanecarboxamide]
< 25 nM	CNC(=O)[C@]1(C)CC[C@@H](Nc2ncc3c(Br)nn(-c4ccc(-c5nnc(CCOC)o5)cc4)c3n2)C1 [(1R,3R)-3-[[3-bromo-1-[4-[5-(2-methoxy-ethyl)-1,3,4-oxadiazol-2-yl]phenyl]pyrazolo [3,4-d]pyrimidin-6-yl]amino]-N,1-dimethyl-cyclopentanecarboxamide]
25 to 200 nM	CN(CCNC(=O)[C@@H]1CC[C@@H](Nc2ncc3c(Br)nn(-c4ccc5ncccc5c4)c3n2)C1)CC(=O)O [N-(2-((1R,3R)-3-((3-bromo-1-(quinolin-6-yl)-1H-pyrazolo[3,4-d]pyrimidin-6-yl)amino)cyclopentane-1-carboxamido)ethyl)-N-methylglycine]
25 to 200 nM	CNC(=O)[C@]1(C)CC[C@@H](Nc2ncc3c(Br)nn(-c4ccc(C#N)c(OCCOC)c4)c3n2)C1 [(1R,3R)-3-[[3-bromo-1-[4-cyano-3-(2-methoxyethoxy)phenyl]pyrazolo[3,4-d]pyrimidin-6-yl]amino]-N,1-dimethyl-cyclopentanecarboxamide]
200 to 500 nM	CNC(=O)[C@@]1(C)CC[C@@H](Nc2ncc3c(Br)nn(-c4ccc5ncccc5c4)c3n2)C1 [(1S,3R)-3-((3-bromo-1-(quinolin-6-yl)-1H-pyrazolo[3,4-d]pyrimidin-6-yl)amino)-N,1-dimethylcyclopentane-1-carboxamide]
25 to 200 nM	CNC(=O)[C@]1(C)CC[C@@H](Nc2ncc3c(Br)nn(-c4ccc(C#N)c(CO)c4)c3n2)C1 [(1R,3R)-3-[[3-bromo-1-[4-cyano-3-(hydroxymethyl)phenyl]pyrazolo[3,4-d]pyrimidin-6-yl]amino]-N,1-dimethyl-cyclopentanecarboxamide]

More lines, now with the values behind:

Compound	IC50
C[C@@]1(C(=O)NCC2(O)CC2)CC[C@@H](Nc2ncc3c(Br)nn(-c4cc(F)c5ncccc5c4)c3n2)C1 [(1R,3R)-3-[[3-bromo-1-(8-fluoro-6-quinolyl)pyrazolo[3,4-d]pyrimidin-6-yl]amino]-N-[(1-hydroxycyclopropyl)methyl]-1-methyl-cyclopentanecarboxamide]	< 25 nM
CNC(=O)[C@]1(C)CC[C@@H](Nc2ncc3c(Br)nn(-c4ccc5c(c4)C(=O)C(=O)N5)c3n2)C1 [(1R,3R)-3-[[3-bromo-1-(2,3-dioxo-indolin-5-yl)pyrazolo[3,4-d]pyrimidin-6-yl]amino]-N,1-dimethyl-cyclo-pentanecarboxamide]	25 to 200 nM
CNC(=O)[C@]1(C)CC[C@@H](Nc2ncc3c(Br)nn(-c4ccc5ncnn5c4)c3n2)C1 [(1R,3R)-3-[[3-bromo-1-([1,2,4]triazolo[1,5-a]pyridin-6-yl)pyrazolo[3,4-d]pyrimidin-6-yl]amino]-N,1-dimethyl-cyclopentane-carboxamide]	25 to 200 nM
CNC(=O)[C@]1(C)CC[C@@H](Nc2ncc3c(Br)nn(-c4cc(F)c5ncccc5c4)c3n2)C1 [(1R,3R)-3-((3-bromo-1-(8-fluoroquinolin-6-yl)-1H-pyrazolo[3,4-d]pyrimidin-6-yl)amino)-N,1-dimethylcyclopentane-1-carboxamide]	25 to 200 nM
CNC(=O)[C@]1(C)CC[C@@H](Nc2ncc3c(Br)nn(-c4ccc5c(c4)CS(=O)(=O)C5)c3n2)C1 [(1R,3R)-3-[[3-bromo-1-(2,2-dioxo-1,3-dihydro-2-benzothiophen-5-yl)pyrazolo[3,4-d]pyrimidin-6-yl]amino]-N,1-dimethyl-cyclopentanecarboxamide]	25 to 200 nM
CNC(=O)[C@]1(C)CC[C@@H](Nc2ncc3c(Br)nn(-c4ccc(-n5cncn5)cc4)c3n2)C1 [(1R,3R)-3-[[3-bromo-1-[4-(1,2,4-triazol-1-yl)phenyl]pyrazolo[3,4-d]pyrimidin-6-yl]amino]-N,1-dimethyl-cyclopentane-carboxamide]	25 to 200 nM
Cn1cccc(NC(=O)[C@@H]2CC[C@@H](Nc3ncc4c(Br)nn(-c5cc(F)c6ncccc6c5)c4n3)C2)c1=O [(1R,3R)-3-[[3-bromo-1-(8-fluoro-6-quinolyl)pyrazolo[3,4-d]pyrimidin-6-yl]amino]-N-(1-methyl-2-oxo-3-pyridyl)cyclopentane-carboxamide]	25 to 200 nM
NC(=O)C1(NC(=O)[C@@H]2CC[C@@H](Nc3ncc4c(Br)nn(-c5cc(F)c6ncccc6c5)c4n3)C2)CCC1 [(1R,3R)-3-[[3-bromo-1-(8-fluoro-6-quinolyl)pyrazolo[3,4-d]pyrimidin-6-yl]amino]-N-(1-carbamoylcyclobutyl)cyclopentane-carboxamide]	25 to 200 nM
CNC(=O)[C@]1([C@@H](C)C#N)CC[C@@H](Nc2ncc3c(Br)nn(-c4ccc(-c5nnc(C)s5)cc4)c3n2)C1 [(1R,3R)-3-[[3-bromo-1-[4-(5-methyl-1,3,4-thiadiazol-2-yl)phenyl]pyrazolo [3,4-d]pyrimidin-6-yl]amino]-1-[(1R)-1-cyanoethyl]-N-methyl-cyclopentane-carboxamide]	25 to 200 nM
Cc1nnc(-c2ccc(-n3nc(Br)c4cnc(N[C@@H]5CCOC5)nc43)cc2)s1 [3-bromo-1-[4-(5-methyl-1,3,4-thiadiazol-2-yl)phenyl]-N-[(3R)-tetrahydrofuran-3-yl] pyrazolo[3,4-d]pyrimidin-6-amine]	25 to 200 nM
CNC(=O)[C@]1([C@H](C)C#N)CC[C@@H](Nc2ncc3c(Br)nn(-c4ccc(-c5nnc(C)s5)cc4)c3n2)C1 [(1R,3R)-3-[[3-bromo-1-[4-(5-methyl-1,3,4-thiadiazol-2-yl)phenyl]pyrazolo [3,4-d]pyrimidin-6-yl]amino]-1-[(1S)-1-cyanoethyl]-N-methyl-cyclopentane-carboxamide]	25 to 200 nM
CNC(=O)[C@]1(C)CC[C@@H](Nc2ncc3c(Br)nn(-c4cc(Cl)c(F)c(CO)c4)c3n2)C1 [(1R,3R)-3-[[3-bromo-1-[3-chloro-4-fluoro-5-(hydroxymethyl)phenyl]pyrazolo[3,4-d]pyrimidin-6-yl]amino]-N,1-dimethyl-cyclopentanecarboxamide]	25 to 200 nM
CCN(C)C(=O)[C@]1(C)CC[C@@H](Nc2ncc3c(Br)nn(-c4cc(F)c5ncccc5c4)c3n2)C1 [(1R,3R)-3-[[3-bromo-1-(8-fluoro-6-quinolyl)pyrazolo[3,4-d]pyrimidin-6-yl]amino]-N-ethyl-N,1-dimethyl-cyclopentanecarboxamide]	< 25 nM
CNC(=O)[C@]1(C)CC[C@@H](Nc2ncc3c(Br)nn(-c4ccc(-c5ncco5)c(CO)c4)c3n2)C1 [(1R,3R)-3-[[3-bromo-1-[3-(hydroxymethyl)-4-oxazol-2-yl-phenyl]pyrazolo[3,4-d]pyrimidin-6-yl]amino]-N,1-dimethyl-cyclopentanecarboxamide]	25 to 200 nM
Cc1nnc(-c2ccc(-n3nc(Br)c4cnc(N[C@@H]5CC[C@@](C)(C(=O)N6CCNCC6)C5)nc43)cc2CCC#N)s1	25 to 200 nM
CNC(=O)[C@]1(C)CC[C@@H](Nc2ncc3c(Br)nn(-c4ccc(F)c(CCN)c4)c3n2)C1 [(1R,3R)-3-[[1-[3-(2-aminoethyl)-4-fluoro-phenyl]-3-bromo-pyrazolo[3,4-d]pyrimidin-6-yl]amino]-N,1-dimethyl-cyclopentane-carboxamide]	25 to 200 nM
CNC(=O)[C@]1(C)CC[C@@H](Nc2ncc3c(Br)nn(-c4cc(C5CCNC5)c5ncccc5c4)c3n2)C1 (stereo partly drawn) [(1R,3R)-3-[[3-bromo-1-(8-pyrrolidin-3-yl-6-quinolyl)pyrazolo[3,4-d]pyrimidin-6-yl]amino]-N,1-dimethyl-cyclopentane-carboxamide]	< 25 nM
